According to ChEMBL document CHEMBL5465560, “Selectivity Literature for EUbOPEN Chemogenomic Library” (2024):
Values belong to the molecule of their own block, whether it stands above or below them.

Legend:
[1] = molecular target: Calcium/calmodulin-dependent protein kinase type 1G (Homo sapiens) (UniProt Q96NX5); conditions: at 10 µM
[2] = molecular target: Death-associated protein kinase 2 (Homo sapiens) (UniProt Q9UIK4); test: Selectivity interaction (KinomeScan (DiscoverX)) EUB0001049a DAPK2; conditions: at 1 µM
Death-associated protein kinase 2 (Homo sapiens), sequence (Q9UIK4 whole entry, looked up): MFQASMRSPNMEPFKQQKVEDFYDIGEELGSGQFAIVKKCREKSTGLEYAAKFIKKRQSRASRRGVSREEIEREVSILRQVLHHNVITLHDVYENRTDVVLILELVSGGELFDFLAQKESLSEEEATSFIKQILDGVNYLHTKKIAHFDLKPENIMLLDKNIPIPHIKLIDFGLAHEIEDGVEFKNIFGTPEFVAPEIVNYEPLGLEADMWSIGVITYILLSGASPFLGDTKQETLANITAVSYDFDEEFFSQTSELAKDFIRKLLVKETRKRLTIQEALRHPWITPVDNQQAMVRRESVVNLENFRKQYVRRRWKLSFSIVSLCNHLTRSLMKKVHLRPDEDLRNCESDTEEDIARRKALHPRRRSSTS

[3] = molecular target: T1, Serine/threonine-protein kinase DCLK3 (Homo sapiens) (UniProt Q9C098); test: Selectivity interaction (Ambit KINOMEscan and KiNATiv profiling in Jurkat cells) EUB0000090b DCLK3; assay type: cell-based; conditions: at 1 µM
T1 sequence (whole entry): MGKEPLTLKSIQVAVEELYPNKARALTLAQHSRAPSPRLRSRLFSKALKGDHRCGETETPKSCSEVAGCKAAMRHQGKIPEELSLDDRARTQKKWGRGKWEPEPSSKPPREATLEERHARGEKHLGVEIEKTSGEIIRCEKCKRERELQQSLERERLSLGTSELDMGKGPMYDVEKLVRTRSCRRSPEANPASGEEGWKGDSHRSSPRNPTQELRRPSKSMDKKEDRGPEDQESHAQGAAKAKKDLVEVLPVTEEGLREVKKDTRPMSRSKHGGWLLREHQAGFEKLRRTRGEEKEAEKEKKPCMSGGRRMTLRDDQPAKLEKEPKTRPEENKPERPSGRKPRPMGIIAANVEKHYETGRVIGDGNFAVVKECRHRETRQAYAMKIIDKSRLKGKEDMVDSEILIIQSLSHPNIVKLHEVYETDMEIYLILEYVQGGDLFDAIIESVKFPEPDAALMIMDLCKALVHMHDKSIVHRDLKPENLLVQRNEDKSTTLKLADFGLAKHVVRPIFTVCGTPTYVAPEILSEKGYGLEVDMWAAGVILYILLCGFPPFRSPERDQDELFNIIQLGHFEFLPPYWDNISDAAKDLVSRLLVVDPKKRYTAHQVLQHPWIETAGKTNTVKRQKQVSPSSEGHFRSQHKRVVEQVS

[4] = molecular target: Tyrosine-protein kinase JAK1 (Homo sapiens, UniProt P23458); test: Selectivity interaction (Ambit KINOMEscan and KiNATiv profiling in Jurkat cells) EUB0000090b JAK1; assay type: cell-based; conditions: at 1 µM
Tyrosine-protein kinase JAK1, sequence (P23458 whole entry): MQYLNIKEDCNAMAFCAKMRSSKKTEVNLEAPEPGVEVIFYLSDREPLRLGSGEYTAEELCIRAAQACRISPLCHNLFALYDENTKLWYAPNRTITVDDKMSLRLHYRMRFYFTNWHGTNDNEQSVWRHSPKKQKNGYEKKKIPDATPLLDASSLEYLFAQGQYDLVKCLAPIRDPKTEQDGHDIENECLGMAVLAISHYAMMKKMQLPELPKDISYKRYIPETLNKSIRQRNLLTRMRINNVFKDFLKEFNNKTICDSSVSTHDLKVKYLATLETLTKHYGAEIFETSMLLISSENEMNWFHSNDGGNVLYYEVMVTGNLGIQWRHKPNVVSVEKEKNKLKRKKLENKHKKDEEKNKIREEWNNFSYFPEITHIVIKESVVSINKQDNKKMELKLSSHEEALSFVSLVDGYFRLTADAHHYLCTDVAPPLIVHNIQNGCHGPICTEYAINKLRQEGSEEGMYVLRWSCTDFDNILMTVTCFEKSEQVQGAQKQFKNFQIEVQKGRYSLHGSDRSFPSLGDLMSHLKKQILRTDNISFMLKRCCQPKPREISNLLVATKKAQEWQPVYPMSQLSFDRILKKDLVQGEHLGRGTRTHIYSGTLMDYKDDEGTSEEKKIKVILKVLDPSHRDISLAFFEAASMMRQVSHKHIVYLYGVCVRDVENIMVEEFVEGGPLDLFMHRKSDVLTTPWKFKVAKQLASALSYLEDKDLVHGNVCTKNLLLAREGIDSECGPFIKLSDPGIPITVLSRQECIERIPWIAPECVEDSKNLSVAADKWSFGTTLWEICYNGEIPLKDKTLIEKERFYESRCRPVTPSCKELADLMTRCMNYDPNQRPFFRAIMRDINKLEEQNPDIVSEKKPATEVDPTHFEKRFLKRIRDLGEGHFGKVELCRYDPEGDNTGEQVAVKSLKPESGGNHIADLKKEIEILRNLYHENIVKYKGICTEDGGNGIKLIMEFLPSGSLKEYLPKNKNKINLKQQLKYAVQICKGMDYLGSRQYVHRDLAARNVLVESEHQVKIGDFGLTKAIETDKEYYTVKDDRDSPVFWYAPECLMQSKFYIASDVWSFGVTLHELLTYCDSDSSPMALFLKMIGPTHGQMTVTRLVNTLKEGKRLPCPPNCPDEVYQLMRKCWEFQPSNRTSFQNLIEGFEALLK

[5] = molecular target: Calcium/calmodulin-dependent protein kinase kinase 2 (Homo sapiens) (UniProt Q96RR4); test: Selectivity interaction (ActivX KiNativ screen (kinase selectivity in THP-1 cell lysates)) EUB0000639a CAMKK2; assay type: subcellular; conditions: lysate, at 0.04 µM
Calcium/calmodulin-dependent protein kinase kinase 2 (Homo sapiens), sequence (Q96RR4 2-588 limits assumed): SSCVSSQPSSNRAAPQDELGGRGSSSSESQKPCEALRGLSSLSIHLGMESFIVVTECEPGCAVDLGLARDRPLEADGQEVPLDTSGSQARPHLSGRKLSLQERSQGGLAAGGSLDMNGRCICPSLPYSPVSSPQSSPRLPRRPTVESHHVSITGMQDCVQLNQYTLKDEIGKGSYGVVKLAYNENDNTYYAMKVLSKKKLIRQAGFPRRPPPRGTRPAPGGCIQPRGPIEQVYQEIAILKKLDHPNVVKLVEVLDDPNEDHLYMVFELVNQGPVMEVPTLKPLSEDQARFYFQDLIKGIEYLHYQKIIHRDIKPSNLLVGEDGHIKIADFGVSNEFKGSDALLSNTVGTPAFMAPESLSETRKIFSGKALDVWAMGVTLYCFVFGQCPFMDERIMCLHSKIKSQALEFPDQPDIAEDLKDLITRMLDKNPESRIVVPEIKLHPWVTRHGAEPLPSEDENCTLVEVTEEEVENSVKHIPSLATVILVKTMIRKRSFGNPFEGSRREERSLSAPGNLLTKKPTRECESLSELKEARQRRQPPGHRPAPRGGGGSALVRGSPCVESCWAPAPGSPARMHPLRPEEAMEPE

[6] = molecular target: T2, Serine/threonine-protein kinase 16 (Homo sapiens, UniProt O75716); test: Selectivity interaction (ActivX KiNativ screen (kinase selectivity in THP-1 cell lysates)) EUB0000639a STK16; assay type: subcellular; conditions: lysate, at 5 µM
T2 sequence (O75716 whole entry): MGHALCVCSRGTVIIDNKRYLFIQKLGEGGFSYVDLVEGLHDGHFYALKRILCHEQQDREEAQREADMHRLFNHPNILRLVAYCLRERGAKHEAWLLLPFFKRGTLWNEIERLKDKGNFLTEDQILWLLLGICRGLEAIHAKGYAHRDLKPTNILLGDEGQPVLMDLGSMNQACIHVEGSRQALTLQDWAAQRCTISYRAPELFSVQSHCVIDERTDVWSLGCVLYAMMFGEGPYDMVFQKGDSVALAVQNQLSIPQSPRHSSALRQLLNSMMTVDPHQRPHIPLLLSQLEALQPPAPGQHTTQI

[7] = molecular target: T2, Serine/threonine-protein kinase 16; conditions: at 10 µM
[8] = molecular target: T3, Ephrin type-A receptor 1 (Homo sapiens) (UniProt P21709); test: Selectivity interaction (KinomeScan (DiscoverX)) EUB0000045b EPHA1
T3 sequence (whole entry): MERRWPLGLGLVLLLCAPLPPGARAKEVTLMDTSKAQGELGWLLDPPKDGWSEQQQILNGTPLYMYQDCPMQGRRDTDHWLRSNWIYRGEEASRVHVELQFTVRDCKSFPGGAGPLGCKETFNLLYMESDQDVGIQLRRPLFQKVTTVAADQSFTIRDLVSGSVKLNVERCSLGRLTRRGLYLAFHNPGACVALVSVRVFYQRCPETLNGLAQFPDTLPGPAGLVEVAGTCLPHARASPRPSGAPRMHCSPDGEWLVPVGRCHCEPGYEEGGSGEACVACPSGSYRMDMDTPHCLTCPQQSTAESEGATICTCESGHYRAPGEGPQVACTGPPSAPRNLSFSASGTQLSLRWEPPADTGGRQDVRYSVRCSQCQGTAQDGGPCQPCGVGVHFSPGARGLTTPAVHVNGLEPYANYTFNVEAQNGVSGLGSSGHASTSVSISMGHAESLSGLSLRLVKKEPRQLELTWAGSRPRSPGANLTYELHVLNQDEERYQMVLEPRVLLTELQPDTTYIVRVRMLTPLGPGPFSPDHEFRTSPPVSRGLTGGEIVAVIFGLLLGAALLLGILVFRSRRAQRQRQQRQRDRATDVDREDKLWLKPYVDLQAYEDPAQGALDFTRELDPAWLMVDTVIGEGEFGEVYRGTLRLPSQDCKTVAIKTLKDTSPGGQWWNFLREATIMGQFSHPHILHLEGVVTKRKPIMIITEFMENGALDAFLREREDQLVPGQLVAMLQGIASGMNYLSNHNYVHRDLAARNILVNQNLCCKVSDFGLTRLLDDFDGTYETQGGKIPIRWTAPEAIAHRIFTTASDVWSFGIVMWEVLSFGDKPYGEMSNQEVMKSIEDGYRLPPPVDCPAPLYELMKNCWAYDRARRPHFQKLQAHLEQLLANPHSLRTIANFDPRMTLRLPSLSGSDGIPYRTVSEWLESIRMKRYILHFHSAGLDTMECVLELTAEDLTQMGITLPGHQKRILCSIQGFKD

[9] = molecular target: T1, Serine/threonine-protein kinase DCLK3 (Homo sapiens); test: Selectivity interaction (KinomeScan (DiscoverX)) EUB0000655a DCLK3; conditions: at 10 µM
[10] = molecular target: T4, Mitogen-activated protein kinase 13 (Homo sapiens) (UniProt O15264); test: Selectivity interaction (KinomeScan (DiscoverX)) EUB0000655a MAPK13; conditions: at 10 µM
T4 sequence (whole entry): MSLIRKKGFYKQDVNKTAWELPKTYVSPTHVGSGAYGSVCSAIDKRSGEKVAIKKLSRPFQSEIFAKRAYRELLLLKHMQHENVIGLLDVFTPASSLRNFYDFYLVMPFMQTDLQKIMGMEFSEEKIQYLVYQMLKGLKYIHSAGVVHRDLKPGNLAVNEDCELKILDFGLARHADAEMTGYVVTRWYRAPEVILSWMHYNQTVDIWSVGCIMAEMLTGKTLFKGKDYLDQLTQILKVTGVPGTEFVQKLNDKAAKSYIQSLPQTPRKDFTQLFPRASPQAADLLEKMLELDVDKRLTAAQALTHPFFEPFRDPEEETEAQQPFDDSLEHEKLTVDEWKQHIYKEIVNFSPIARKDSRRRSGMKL

[11] = molecular target: SRSF protein kinase 3 (Homo sapiens) (UniProt Q9UPE1); test: Selectivity interaction (KinomeScan (DiscoverX)) EUB0001619a SRPK3; conditions: at 1 µM
SRSF protein kinase 3 (Homo sapiens), sequence (Q9UPE1 whole entry): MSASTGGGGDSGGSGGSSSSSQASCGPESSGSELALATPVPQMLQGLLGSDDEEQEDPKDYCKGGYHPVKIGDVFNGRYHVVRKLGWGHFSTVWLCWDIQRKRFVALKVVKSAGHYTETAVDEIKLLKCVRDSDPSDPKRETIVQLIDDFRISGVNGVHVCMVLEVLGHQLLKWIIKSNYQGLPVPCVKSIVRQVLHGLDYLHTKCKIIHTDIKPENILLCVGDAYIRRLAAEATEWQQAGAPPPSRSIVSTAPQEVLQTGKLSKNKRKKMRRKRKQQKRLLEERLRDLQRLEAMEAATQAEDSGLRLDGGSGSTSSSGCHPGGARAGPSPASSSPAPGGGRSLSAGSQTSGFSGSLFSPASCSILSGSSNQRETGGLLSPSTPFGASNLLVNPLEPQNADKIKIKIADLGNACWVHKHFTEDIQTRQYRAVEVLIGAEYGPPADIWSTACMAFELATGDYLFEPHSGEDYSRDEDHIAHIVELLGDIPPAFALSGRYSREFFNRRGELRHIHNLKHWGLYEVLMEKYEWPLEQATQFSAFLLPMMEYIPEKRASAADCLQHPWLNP

[12] = molecular target: Mitogen-activated protein kinase kinase kinase kinase 5 (Homo sapiens) (UniProt Q9Y4K4); test: Selectivity interaction (KinomeScan (DiscoverX)) EUB0000607a MAP4K5; conditions: at 10 µM
[13] = molecular target: Serine/threonine-protein kinase MARK2 (Homo sapiens) (UniProt Q7KZI7); test: Selectivity interaction (Kinase panel (KiNativ target engagement assay in Jurkat cells)) EUB0001635a MARK2; assay type: cell-based; conditions: Selectivity number of off-targets 0.0, Selectivity number of targets 233.0, Source Knowledge https://www.sciencedirect.com/science/article/pii/S2451945619300674?via%3Dihub, at 1 µM
Serine/threonine-protein kinase MARK2 (Homo sapiens), sequence (Q7KZI7 whole entry, canonical isoform): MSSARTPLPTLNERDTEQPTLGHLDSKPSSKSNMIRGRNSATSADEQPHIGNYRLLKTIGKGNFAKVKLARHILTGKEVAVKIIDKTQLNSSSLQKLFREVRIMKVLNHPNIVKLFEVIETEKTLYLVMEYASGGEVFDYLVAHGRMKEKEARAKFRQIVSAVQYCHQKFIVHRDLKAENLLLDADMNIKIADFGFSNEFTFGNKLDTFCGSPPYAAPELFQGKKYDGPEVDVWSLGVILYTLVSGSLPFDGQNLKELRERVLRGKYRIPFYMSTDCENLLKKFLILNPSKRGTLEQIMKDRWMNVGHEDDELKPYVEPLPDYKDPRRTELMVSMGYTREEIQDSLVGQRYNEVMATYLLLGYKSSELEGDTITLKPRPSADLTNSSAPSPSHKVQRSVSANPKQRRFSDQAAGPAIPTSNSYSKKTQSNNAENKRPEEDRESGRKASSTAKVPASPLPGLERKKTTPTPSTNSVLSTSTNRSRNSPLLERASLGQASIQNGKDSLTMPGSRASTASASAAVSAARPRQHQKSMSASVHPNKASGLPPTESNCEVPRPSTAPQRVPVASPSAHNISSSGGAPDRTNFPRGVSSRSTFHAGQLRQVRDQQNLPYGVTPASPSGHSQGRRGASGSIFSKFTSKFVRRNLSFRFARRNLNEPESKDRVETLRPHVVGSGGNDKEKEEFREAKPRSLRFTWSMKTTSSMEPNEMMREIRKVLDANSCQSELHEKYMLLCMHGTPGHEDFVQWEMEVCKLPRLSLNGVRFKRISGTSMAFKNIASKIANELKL

[14] = molecular target: Casein kinase I isoform gamma-3 (Homo sapiens) (UniProt Q9Y6M4); test: Selectivity interaction (KinomeScan (DiscoverX)) EUB0000666a CSNK1G3; conditions: at 10 µM
Casein kinase I isoform gamma-3 (Homo sapiens), sequence (Q9Y6M4 whole entry, looked up, canonical isoform): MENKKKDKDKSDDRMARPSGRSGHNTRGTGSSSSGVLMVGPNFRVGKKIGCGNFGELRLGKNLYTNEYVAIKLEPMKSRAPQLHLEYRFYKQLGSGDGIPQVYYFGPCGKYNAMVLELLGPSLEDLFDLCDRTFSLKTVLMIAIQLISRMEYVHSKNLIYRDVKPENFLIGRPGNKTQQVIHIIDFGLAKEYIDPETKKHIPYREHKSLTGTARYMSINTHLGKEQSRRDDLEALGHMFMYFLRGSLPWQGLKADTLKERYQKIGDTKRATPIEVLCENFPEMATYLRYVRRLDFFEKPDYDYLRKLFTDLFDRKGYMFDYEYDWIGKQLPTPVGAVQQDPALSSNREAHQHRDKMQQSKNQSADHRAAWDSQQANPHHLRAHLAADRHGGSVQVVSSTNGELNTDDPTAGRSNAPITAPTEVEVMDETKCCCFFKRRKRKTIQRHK

Calcium/calmodulin-dependent protein kinase type 1G (Homo sapiens), sequence (Q96NX5 whole entry): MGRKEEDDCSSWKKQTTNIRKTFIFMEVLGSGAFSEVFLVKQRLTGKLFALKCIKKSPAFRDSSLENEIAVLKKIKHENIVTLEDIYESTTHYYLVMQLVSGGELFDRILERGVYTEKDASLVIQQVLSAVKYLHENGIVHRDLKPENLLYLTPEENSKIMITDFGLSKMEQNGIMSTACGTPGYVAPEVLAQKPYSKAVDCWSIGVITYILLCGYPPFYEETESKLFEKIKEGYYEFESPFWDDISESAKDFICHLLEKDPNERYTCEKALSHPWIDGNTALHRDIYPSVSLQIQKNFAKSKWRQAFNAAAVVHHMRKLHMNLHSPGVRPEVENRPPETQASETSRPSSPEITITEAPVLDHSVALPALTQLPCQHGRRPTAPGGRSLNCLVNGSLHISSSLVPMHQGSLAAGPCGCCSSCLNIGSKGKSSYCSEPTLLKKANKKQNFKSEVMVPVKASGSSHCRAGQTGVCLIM

Structure (SMILES): Cc1cc([C@@H](C)Nc2ccccc2C(=O)O)c2nc(N3CCOCC3)cc(=O)n2c1 [AZD-6482]
% of control [1]: 91%

Structure (SMILES): COc1cc(Nc2nc(C)cc(-c3cnn4nc(OC)ccc34)n2)cc(C(F)(F)F)c1
% of control [2]: 100%

Structure (SMILES): CN(C)C/C=C/C(=O)Nc1ccc(C(=O)N2CCCC(Nc3ncc(Cl)c(-c4c[nH]c5ccccc45)n3)C2)cc1 (stereo not given)
% of control [3]: 76%
% of control [4]: 86%

% of inhibition [5]: -13%
% of inhibition [6]: 81.9%
Structure (SMILES): CC[C@@H]1[C@H](F)C(=O)N[C@@H]1COc1nccc2cc(C(N)=O)c(OC)cc12 [ZIMLOVISERTIB]

% of control [7]: 100%
Structure (SMILES): CCN(CC)CCCCNc1ncc2cc(-c3cc(OC)cc(OC)c3)c(NC(=O)NC(C)(C)C)nc2n1

Structure (SMILES): C=CC(=O)Nc1cc(-n2c(=O)ccc3cnc4ccc(-c5ccc(NS(C)(=O)=O)cc5)cc4c32)ccc1C
% of control ([8]; at 1 µM): 92%
% of control ([8]; at 10 µM): 100%

Structure (SMILES): CN(C)CCOc1ccc(-c2nc(-c3ccncc3)c(-c3ccc4c(c3)CC/C4=N\O)[nH]2)cc1
% of control [9]: 89%
% of control [10]: 87%

Structure (SMILES): N#Cc1cccc(-c2c[nH]c3ncnc(N4CCOCC4)c23)c1
% of control [11]: 27%

Structure (SMILES): CNC(=O)Nc1ccc(-c2nc(N3CC4CCC(C3)O4)c3cnn(C4CCC5(CC4)OCCO5)c3n2)cc1
% of control [12]: 83%

Structure (SMILES): C=CC(=O)Nc1ccc(C(=O)Nc2[nH]nc3c2CN(C(=O)N[C@H](CN(C)C)c2ccccc2)C3(C)C)cc1
% of engagement [13]: -1.9%

Structure (SMILES): O=C(NOC[C@H](O)CO)c1ccc(F)c(F)c1Nc1ccc(I)cc1F
% of control [14]: 67%
